{"source": "paper PMC11521691", "about": "“Elucidating the antimicrobial and anticarcinogenic potential of methanolic and water extracts of edible Tragopogon coelesyriacus Boiss” (Food Science & Nutrition, 2024)", "key": {"[1]": {"test_system": "AR42J (pancreatic cancer) cells", "assay": "MTT cytotoxicity assay", "type": "cell-based, human", "procedure": "(§1) This study included three epithelial cancerous (AR42J, pancreatic cancer; HeLa, cervical cancer, and MDA‐MB‐231 breast cancer) and two noncancerous epithelial human cells (ARPE‐19, retina; and MCF10A, breast). AR42J (ECACC, Cat No. 93100618) and MDA‐MB‐231 (ATCC, Cat No. HTB‐26) cells were cultured in RPMI media. HeLa cells (ATCC, Cat No. CCl‐2) were cultured in EMEM media. ARPE‐19 (ATCC, Cat No. CRL‐2302) and MCF10A (ATCC, Cat No. CRL‐10317) cells were cultured in DMEM. Each medium consisted of penicillin–streptomycin (1%) and fetal bovine serum (10%). Cells were cultured in a 37°C incubator with 5% CO2 humidification. Cells were cultured in 96‐well plates as 10.000 cells per well. After they reached at 80% confluency, cells were treated with extracts. For this, experiments for each cell included two groups, (1) treated with T. coelesyriacus extracts obtained by methanol for 24 h, 48 h, and 72 h at 3.125, 6.25, 12.5, 25, […], 100, and 200 μg/mL, and (2) treated with T. coelesyriacus extracts obtained by water for 24 h, 48 h, and 72 h at 3.125, 6.25, 12.5, 25, […], 100, and 200 μg/mL. Control wells for each cell were untreated (0 μg/mL). Positive control experiments were performed with cisplatin at the same concentrations with extracts (3.125–100 μg/mL) for 24 h, 48 h, and 72 h. For each dose at each concentration, at least three wells were used as intra‐experimental repeats. The whole experiments for each cell were repeated as two to three independent replications.\n(§2) After treatment with different extracts (at 3.125, 6.25, 12.5, 25, 50, 100, and 200 μg/mL for 24 h, 48 h, and 72 h), media with extracts were removed, and the MTT protocol was applied as before (Cakmak et al., [2021]). MTT was also applied after cisplatin treatment for 24 h, 48 h, and 72 h. The concentrations of cisplatin used were 3.125, 6.25, 12.5, 25, 50, and 100 μg/mL. In this method, 200 μL of media, including 10 μL MTT (3‐(4,5‐dimethylthiazol‐2‐yl)‐2,5‐diphenyltetrazolium bromide), was added to each well and incubated at 37°C for 2.5 h. After incubation, media with MTT were removed, and 150 μL of DMSO was added to each well for dissolving formazan crystals. Subsequently, plates were incubated in the dark on a shaker for 1 h. Absorbances at 570 nm were read. Cell viabilities (as percentages) were calculated according to the viability of untreated cells considered as 100%. If applicable, IC50 values were calculated as before (Uzuner et al., [2021])."}, "[2]": {"test_system": "ARPE‐19 (retinal epithelial) cells", "assay": "MTT cytotoxicity assay", "type": "cell-based, human", "settings": "ARPE19 normal cells", "procedure": "as §1, §2"}, "[3]": {"test_system": "HeLa (cervical cancer) cells", "assay": "MTT cytotoxicity assay", "type": "cell-based, human", "procedure": "as §1, §2"}, "[4]": {"test_system": "MCF10A (breast epithelial) cells", "assay": "MTT cytotoxicity assay", "type": "cell-based, human", "settings": "MCF10A normal cells", "procedure": "as §1, §2"}, "[5]": {"test_system": "MDA‐MB‐231 (breast cancer) cells", "assay": "MTT cytotoxicity assay", "type": "cell-based, human", "procedure": "as §1, §2"}, "[6]": {"test_system": "HeLa cells", "design": "method as in Liu et al., 2008", "settings": "25 μg/mL for 72 h, ref Liu et al., 2008; cited from earlier work"}}}
{"compound": "N.N.[Cl][Pt][Cl]", "note": "[cisplatin]", "values": [{"measurement": "IC50 value", "setting": "[1]; 24 h incubation", "value": 18.94, "unit": "µg/mL"}, {"measurement": "IC50 value", "setting": "[1]; 48 h incubation", "value": 14.84, "unit": "µg/mL"}, {"measurement": "IC50 value", "setting": "[1]; 72 h incubation", "value": 6.18, "unit": "µg/mL"}, {"measurement": "Ave IC50 values", "setting": "[2]; 24 h", "value": 63.42, "unit": "µg/mL"}, {"measurement": "Ave IC50 values", "setting": "[2]; 48 h", "value": 54.14, "unit": "µg/mL"}, {"measurement": "Ave IC50 values", "setting": "[2]; 72 h", "value": 16.01, "unit": "µg/mL"}, {"measurement": "Ave IC50 values", "setting": "[3]; 24 h", "value": 8.16, "unit": "µg/mL"}, {"measurement": "Ave IC50 values", "setting": "[3]; 48 h", "value": 13.92, "unit": "µg/mL"}, {"measurement": "IC50 value", "setting": "[3]; 72 h incubation", "value": 4.56, "unit": "µg/mL"}, {"measurement": "Ave IC50 values", "setting": "[4]; 24 h", "value": 33.56, "unit": "µg/mL"}, {"measurement": "Ave IC50 values", "setting": "[4]; 48 h", "value": 26.03, "unit": "µg/mL"}, {"measurement": "Ave IC50 values", "setting": "[4]; 72 h", "value": 8.32, "unit": "µg/mL"}, {"measurement": "Ave IC50 values", "setting": "[5]; MDA‐MB‐231, 24 h", "value": 41.28, "unit": "µg/mL"}, {"measurement": "Ave IC50 values", "setting": "[5]; MDA‐MB‐231, 48 h", "value": 27.87, "unit": "µg/mL"}, {"measurement": "IC50 value", "setting": "[5]; MDA‐MB‐231, 72 h incubation", "value": 10.92, "unit": "µg/mL"}, {"measurement": "cell death", "setting": "[6]", "value": "~90", "unit": "%"}]}
